The source of these data is article PMC12040169 (PLOS Biology, 2025).

Structures are written as SMILES.

The nature of the data set: in vitro. The following applies: human, hela cells, % viability.
Consider `c1ccc(-c2ccccc2CN2CCN(c3nccnc3OCCN3CCOCC3)CC2)cc1` [CBK082893T], for which the viability at 28.5 h, 10 µM was found to be 90.7%. The same measure for `CCOC(=O)CN1CCN(c2nccnc2OCCN2CCOCC2)CC1` [CBK082897]: 93.9%; for `c1cnc(N2CCN(CCN3CCOCC3)CC2)c(OCCN2CCOCC2)n1` [CBK082899]: 105%. Regarding `c1ccc2cc(CCN3CCN(c4nccnc4OCCN4CCOCC4)CC3)ccc2c1` [CBK082911T], the viability at 28.5 h, 10 µM came out at 87.6%. The same measure for `COc1ccc(CN2CCC(Oc3nccnc3OCCN3CCOCC3)CC2)cc1` [CBK082922T]: 90.8%; for `c1ccc(-c2ccccc2CN2CCC(Oc3nccnc3OCCN3CCOCC3)CC2)cc1` [CBK082924T]: 102%. The value for `Fc1ccc(CCN2CCC(Oc3nccnc3OCCN3CCOCC3)CC2)cc1` [CBK082937T] was 88.3%; that for `c1cnc(OC2CCN(CC3CCCCC3)CC2)c(OCCN2CCOCC2)n1` [CBK082941T] was 87.3%.

Take `Cc1cc(COc2nccnc2OC2CCN(Cc3ccccc3F)CC2)no1` [CBK082948T]: the viability at 28.5 h, 10 µM was 109%.

Take `COc1ccc(CN2CCC(Oc3nccnc3OCc3cc(C)on3)CC2)cc1` [CBK082953T]: the viability at 28.5 h, 10 µM was 93.7%. The same measure for `CCN(CC)C(=O)CN1CCC(Oc2nccnc2OCc2cc(C)on2)CC1` [CBK082959T]: 102%. On to `CCOC(=O)CN1CCC(Oc2nccnc2OCc2cc(C)on2)CC1` [CBK082960T], for which the viability at 28.5 h, 10 µM was found to be 105%. As to `Cc1cc(COc2nccnc2OC2CCN(CCN3CCOCC3)CC2)no1` [CBK082961T], the viability at 28.5 h, 10 µM is 103%. As for `CSCCN1CCC(Oc2nccnc2OCc2cc(C)on2)CC1` [CBK082966T], the viability at 28.5 h, 10 µM was determined as 89.7%.

In the case of `Fc1ccccc1CN1CCC(Oc2nccnc2OCC2COc3ccccc3O2)CC1` (stereo not shown) [CBK082979T], the viability at 28.5 h, 10 µM was 101%. On to `NC(=O)CN1CCC(Oc2nccnc2OCC2COc3ccccc3O2)CC1` (stereo not shown) [CBK082987T], for which the viability at 28.5 h, 10 µM was 92.1%. Consider `CCOC(=O)CN1CCC(Oc2nccnc2OCC2COc3ccccc3O2)CC1` (stereo not shown) [CBK082989T], for which the viability at 28.5 h, 10 µM came out at 96.6%.

As to `N#CCCCN1CCC(Oc2nccnc2OCC2COc3ccccc3O2)CC1` (stereo not shown) [CBK082994T], the viability at 28.5 h, 10 µM worked out at 86.8%. The same measure for `CSCCN1CCC(Oc2nccnc2OCC2COc3ccccc3O2)CC1` (stereo not shown) [CBK082996T]: 92.7%; for `c1ccc2c(c1)OCC(COc1nccnc1OC1CCN(CC3CC3)CC1)O2` (stereo not shown) [CBK083001T]: 96.5%. The same measure for `Fc1ccc(Oc2nccnc2N2CCN(Cc3ccc(Cl)c(Cl)c3)CC2)cc1` [CBK083007T]: 92.3%. In the case of `Fc1ccc(Oc2nccnc2N2CCN(Cc3ccccc3F)CC2)cc1` [CBK083009T], the viability at 28.5 h, 10 µM is 91.8%. For `Fc1ccc(Oc2nccnc2N2CCN(Cc3ccc(Cl)cc3)CC2)cc1` [CBK083010T], the viability at 28.5 h, 10 µM amounted to 80.4%. For `O=[N+]([O-])c1ccc(CN2CCN(c3nccnc3Oc3ccc(F)cc3)CC2)cc1` [CBK083015T], the viability at 28.5 h, 10 µM was 92.2%. With `NC(=O)CN1CCN(c2nccnc2Oc2ccc(F)cc2)CC1` [CBK083018T], the viability at 28.5 h, 10 µM amounted to 98.3%. With `CCN(CC)C(=O)CN1CCN(c2nccnc2Oc2ccc(F)cc2)CC1` [CBK083020T], the viability at 28.5 h, 10 µM is 87.9%. For the compound `O=c1[nH]c2ccccc2n1CCCN1CCN(c2nccnc2Oc2ccc(F)cc2)CC1` [CBK083027T], the viability at 28.5 h, 10 µM came out at 88.2%. Take `CSCCN1CCN(c2nccnc2Oc2ccc(F)cc2)CC1` [CBK083028T]: the viability at 28.5 h, 10 µM is 93.2%. As to `Fc1ccc(Oc2nccnc2N2CCN(CC3CC3)CC2)cc1` [CBK083033T], the viability at 28.5 h, 10 µM stood at 91.8%. For `COc1ccc(Oc2nccnc2N2CCN(Cc3ccc(Cl)cc3)CC2)cc1OC` [CBK083041T], the viability at 28.5 h, 10 µM amounted to 87.3%. Consider `COc1ccc(Oc2nccnc2N2CCN(Cc3ccc(C(F)(F)F)cc3)CC2)cc1OC` [CBK083044T], for which the viability at 28.5 h, 10 µM was 102%.

As usually defined, the viability is a read-out of living cells in per cent, often relative to untreated cells.
